Experimental findings from article PMC9516332 (Frontiers in Oncology, 2022) are described below.

Holding throughout (experiment): Kinase panel profiling at 1 µmol/L (MSA or IMAP), percentage inhibition
Common to all, as to assay type: biochemical

Assay [1] deals with panel of 255 wild-type kinases (Homo sapiens, UniProt P49841). Particulars: kinase GSK3β; 1 µmol/L single concentration.
The target in assay [2] is panel of 255 wild-type kinases (Homo sapiens, UniProt P49137). Particulars: kinase MAPKAPK2; 1 µmol/L single concentration; read-out: %-inhibition at 1 µmol/L, MAPKAPK2.
In assay [3] the target is panel of 255 wild-type kinases (Homo sapiens, UniProt P19784). The settings on record: kinase CK2α2/β; 1 µmol/L single concentration; read-out: %-inhibition at 1 µmol/L, CK2α2/β.
For assay [4], the target named is panel of 255 wild-type kinases (Homo sapiens, UniProt Q08345). Particulars: kinase DDR1; 1 µmol/L single concentration; read-out: %-inhibition at 1 µmol/L, DDR1.
Assay [5] concerns the target panel of 255 wild-type kinases (Homo sapiens, UniProt P23443). The settings on record: p70S6K; 1 µmol/L single concentration; read-out: %-inhibition, p70S6K.
Assay [6] deals with panel of 255 wild-type kinases (Homo sapiens, UniProt Q00534). The settings on record: CDK6/CycD3 kinase assay; 1 µmol/L single concentration; read-out: %-inhibition CDK6/CycD3.
The target in assay [7] is panel of 255 wild-type kinases (Homo sapiens, UniProt P42685). The settings on record: kinase FRK; 1 µmol/L single concentration; read-out: %-inhibition at 1 µmol/L, FRK.
Assay [8] deals with panel of 255 wild-type kinases (Homo sapiens, UniProt P35968). Particulars: kinase KDR; 1 µmol/L single concentration; read-out: %-inhibition at 1 µmol/L, KDR.
For assay [9], the target named is panel of 255 wild-type kinases (Homo sapiens, UniProt Q15349). Particulars: kinase RSK3; 1 µmol/L single concentration; read-out: %-inhibition at 1 µmol/L, RSK3.
In assay [10] the target is panel of 255 wild-type kinases (Homo sapiens, UniProt P50750). The settings on record: CDK9/CycT1 kinase assay; 1 µmol/L single concentration; read-out: %-inhibition CDK9/CycT1.
In assay [11] the target is panel of 255 wild-type kinases (Homo sapiens, UniProt P06241). Particulars: kinase FYN [isoform a]; 1 µmol/L single concentration; read-out: %-inhibition at 1 µmol/L, FYN [isoform a].
The target in assay [12] is panel of 255 wild-type kinases (Homo sapiens, UniProt Q02763). Particulars: kinase TIE2; 1 µmol/L single concentration; read-out: %-inhibition at 1 µmol/L, TIE2.
The target in assay [13] is panel of 255 wild-type kinases (Homo sapiens, UniProt P06239). Particulars: read-out: %-inhibition at 1 µmol/L, LCK.
In assay [14] the target is panel of 255 wild-type kinases (Homo sapiens, UniProt Q9UBS0). Particulars: p70S6Kβ; 1 µmol/L single concentration; read-out: %-inhibition, p70S6Kβ.
For assay [15], the target named is panel of 255 wild-type kinases (Homo sapiens, UniProt P78368). Particulars: kinase CK1γ2; 1 µmol/L single concentration; read-out: %-inhibition at 1 µmol/L, CK1γ2.
Assay [16] concerns the target panel of 255 wild-type kinases (Homo sapiens, UniProt P08581). Particulars: MET; 1 µmol/L single concentration.
For assay [17], the target named is panel of 255 wild-type kinases (Homo sapiens, UniProt P29597). Particulars: kinase TYK2; 1 µmol/L single concentration; read-out: %-inhibition at 1 µmol/L, TYK2.
Assay [18] has as its target T1, panel of 255 wild-type kinases (Homo sapiens, UniProt Q96KB5).
T1 sequence (Q96KB5 1-322): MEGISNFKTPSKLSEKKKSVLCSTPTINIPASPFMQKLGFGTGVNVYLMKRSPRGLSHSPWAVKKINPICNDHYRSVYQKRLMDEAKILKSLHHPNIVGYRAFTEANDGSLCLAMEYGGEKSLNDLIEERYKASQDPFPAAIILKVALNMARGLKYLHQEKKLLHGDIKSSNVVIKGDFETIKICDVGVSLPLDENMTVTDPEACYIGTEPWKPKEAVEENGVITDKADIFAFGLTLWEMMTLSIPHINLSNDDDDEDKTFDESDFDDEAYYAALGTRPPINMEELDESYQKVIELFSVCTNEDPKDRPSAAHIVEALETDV
Particulars: kinase PBK; 1 µmol/L single concentration; read-out: %-inhibition at 1 µmol/L, PBK.

Assay [19] deals with panel of 255 wild-type kinases (Homo sapiens, UniProt P14616). Particulars: kinase IRR; 1 µmol/L single concentration; read-out: %-inhibition at 1 µmol/L, IRR.
Assay [20] deals with panel of 255 wild-type kinases (Homo sapiens, UniProt Q15208). The settings on record: NDR1; 1 µmol/L single concentration; read-out: %-inhibition, NDR1.
Setting [21] is: kinase LCK, 1 µmol/L single concentration.

Where two headings read alike, the source gives them in different places.

For `C[C@H](Nc1ncnc2nc[nH]c12)c1cc2cccc(Cl)c2c(=O)n1-c1ccccc1` [duvelisib], the inhibition at 1 µM in assay [1] was -0.808%; in assay [2], -16%; in [3], -1.47%; in assay [4] it was 6%; in assay [5] it was 6%; in assay [6], 1.75%. The inhibition at 1 µM in [7] is -2.26%; in assay [8] it was 11%; in [9] it was -0.46%; in assay [10] it was -0.441%; in [11], 0.67%; in assay [12], -0.0949%. Moreover, the inhibition at 1 µM in [13] (setting [21]) is 7%; in assay [14], 2.47%; in assay [15] it was 2.74%; in assay [16], 1.63%; in [17] it was 2.8%; in assay [18], -1.84%. Moreover, the inhibition at 1 µM was found to be 7% in [19] and 0.434% in assay [20].
`COc1cc2ncnc(Nc3ccc(F)c(Cl)c3)c2cc1NC(=O)/C=C/CN1CCCCC1` [dacomitinib]: the inhibition at 1 µM in [1] was 11%; in assay [2], -40%; in assay [3] it was 1.11%; in assay [4], 101%; in [5], 33%; in assay [6], -6%. The inhibition at 1 µM in [7] was 70%; in assay [8], 42%; in assay [9], 27%; in [10], 3.6%; in assay [11] it was 32%; in assay [12] it was 16%. Besides, the inhibition at 1 µM is 93% in [13] (setting [21]); -0.889% in assay [14]; -1.63% in [15]; 24% in assay [16]; 6.51% in assay [17]; -3.28% in [18]. For the same compound, the inhibition at 1 µM in assay [19] was 6%; in assay [20], -0.0726%.
As to `Cn1cnc2c(F)c(Nc3ccc(Br)cc3Cl)c(C(=O)NOCCO)cc21` [selumetinib], the inhibition at 1 µM in [1] was -8%; in assay [2], -5%; in assay [3], -2%; in assay [4] it was 4.73%; in assay [5], 8%; in assay [6], -3.49%. Moreover, the inhibition at 1 µM in assay [7] is -3%; in assay [8], 2.42%; in [9], 4.41%; in assay [10], -2.15%; in assay [11] it was -3.52%; in assay [12] it was -9%. The inhibition at 1 µM is 8% in [13] (setting [21]); 8% in [14]; -1.66% in assay [15]; -0.807% in assay [16]; -3% in assay [17]; -3% in [18]. In addition, the inhibition at 1 µM was found to be 2.15% in assay [19] and 0.227% in [20].
In the case of `COC(=O)N[C@@H](C)CNc1nccc(-c2cn(C(C)C)nc2-c2cc(Cl)cc(NS(C)(=O)=O)c2F)n1` [encorafenib], the inhibition at 1 µM is 92% in assay [1]; -11% in assay [2]; -3.75% in [3]; 0.442% in assay [4]; 14% in [5]; 6% in assay [6]. Moreover, the inhibition at 1 µM in assay [7] was 8%; in assay [8] it was 22%; in [9], -3.36%; in assay [10], -1.11%; in assay [11], 6%; in assay [12], 6%. Also, the inhibition at 1 µM in assay [13] (setting [21]) was 1.39%; in assay [14], 8%; in assay [15], 31%; in assay [16], 2.82%; in assay [17] it was -6%; in assay [18] it was 8%. Also, the inhibition at 1 µM was -3.65% in assay [19] and 1.12% in [20].
Regarding `Cc1cc(Nc2ncnc3ccc(NC4=NC(C)(C)CO4)cc23)ccc1Oc1ccn2ncnc2c1` [tucatinib], the inhibition at 1 µM in assay [1] is 8%; in assay [2], -28%; in [3], -2.25%; in [4], 9%; in assay [5], 15%; in [6] it was -2.12%. The inhibition at 1 µM in assay [7] is -2.17%; in assay [8], 4.29%; in assay [9] it was 2.84%; in [10] it was 1.53%; in assay [11] it was 2.29%; in assay [12] it was -2.82%. The inhibition at 1 µM is 20% in assay [13]; 3.57% in [14]; -4% in assay [15]; 5.33% in [16]; 4.71% in assay [17]; 1.21% in [18]. The inhibition at 1 µM in assay [19] is 3%; in assay [20], -0.331%.
`CN1CCN(c2ccc(C(=O)Nc3n[nH]c4ccc(Cc5cc(F)cc(F)c5)cc34)c(NC3CCOCC3)c2)CC1` [entrectinib]: the inhibition at 1 µM is -1.6% in assay [1]; -14% in assay [2]; 2% in assay [3]; 99% in assay [4]; 25% in assay [5]; 1.6% in assay [6]. The inhibition at 1 µM in assay [7] was 96%; in assay [10], 1.79%; in [11], 96%; in assay [12] it was 72%; in [14] it was 0.699%; in [15], 0.857%. The inhibition at 1 µM in assay [16] is 24%; in assay [17], 95%; in assay [18], -5.43%; in assay [19], 100%; in assay [20], 49%.
